Converted amounts (≈) assume the structure as drawn. Values belong to the molecule of their own block, whether it stands above or below them. Numbered stars: 1 amine (or outer) side, 2 acyl side, 3 side chain; on linkers, the order of the positions; unused ones are H or OH. Square brackets hold non-standard residues; d marks the D form. Peptide text beside a SMILES is read from it. * marks the point of attachment. X3 = O=C(CN(CC(c1ccccc1)c1ccccc1)[*:1])[*:2]; NCyclohexylmethylGly = O=C(O)CNCC1CCCCC1; NMeR = CN[C@@H](CCCNC(=N)N)C(=O)O; X2 = CCC(C)N(CC(=O)[*:2])[*:1]; NMeK = CN[C@@H](CCCCN)C(=O)O; N(iPr)Gly = CC(C)NCC(=O)O; Nonanoyl = CCCCCCCCC(=O)*; Nphe = O=C(O)CNCc1ccccc1; NBuGly = CCCCNCC(=O)O; Nleu = CC(C)CNCC(=O)O; βAla = NCCC(=O)O
What was measured:
[1] = tested on: Staphylococcus aureus; assay: Antimicrobial activity against Staphylococcus aureus assessed as reduction in microbial growth by broth microdilution method; format: functional
[2] = tested on: Escherichia coli; assay: Antimicrobial activity against Escherichia coli assessed as reduction in microbial growth by broth micro-dilution method; format: functional
[3] = tested on: Erythrocyte; assay: Hemolytic activity in mouse RBC; format: toxicity, cell-based
[4] = tested on: Staphylococcus aureus; assay: Antibacterial activity against Staphylococcus aureus ATCC 25923 assessed as reduction in bacterial cell growth incubated for 18 hrs by two fold serial microdilution method; format: functional
[5] = tested on: Staphylococcus epidermidis; assay: Antibacterial activity against Staphylococcus epidermidis ATCC 12228 assessed as reduction in bacterial cell growth incubated for 18 hrs by two fold serial microdilution method; format: functional
[6] = tested on: Escherichia coli; assay: Antibacterial activity against Escherichia coli ATCC 25922 assessed as reduction in bacterial cell growth incubated for 18 hrs by two fold serial microdilution method; format: functional
[7] = tested on: Pseudomonas aeruginosa; assay: Antibacterial activity against Pseudomonas aeruginosa ATCC 27853 assessed as reduction in bacterial cell growth incubated for 18 hrs by two fold serial microdilution method; format: functional
[8] = tested on: Klebsiella pneumoniae; assay: Antibacterial activity against Klebsiella pneumoniae ATCC 700603 assessed as reduction in bacterial cell growth incubated for 18 hrs by two fold serial microdilution method; format: functional
[9] = tested on: Acinetobacter baumannii; assay: Antibacterial activity against Acinetobacter baumannii ATCC 19606 assessed as inhibition in bacterial growth incubated for 20 to 24 hrs by CLSI based broth microdilution method; format: functional; conditions: time 20-24 hrs
[10] = tested on: Erythrocyte; assay: Hemolytic activity in mouse Red blood cells incubated for 1 hr; format: toxicity, cell-based
[11] = Hemolytic activity in mouse Red blood cells incubated for 1 hr by microplate reader assay; format: toxicity, cell-based, Erythrocyte; conditions: red blood cells
[12] = tested on: Staphylococcus aureus; assay: Antibacterial activity against Staphylococcus aureus ATCC 25923 assessed as reduction in bacterial cell growth measured for 18 hrs by Mueller-Hinton broth based two-fold serial dilution method; format: functional
[13] = tested on: Bacillus subtilis; assay: Antibacterial activity against Bacillus subtilis ATCC 23857 assessed as reduction in bacterial cell growth measured for 18 hrs by Mueller-Hinton broth based two-fold serial dilution method; format: functional
[14] = tested on: Escherichia coli; assay: Antibacterial activity against Escherichia coli ATCC 25922 assessed as reduction in bacterial cell growth measured for 18 hrs by Mueller-Hinton broth based two-fold serial dilution method; format: functional
[15] = tested on: Pseudomonas aeruginosa; assay: Antibacterial activity against Pseudomonas aeruginosa ATCC 27853 assessed as reduction in bacterial cell growth measured for 18 hrs by Mueller-Hinton broth based two-fold serial dilution method; format: functional
[16] = tested on: Klebsiella pneumoniae; assay: Antibacterial activity against Klebsiella pneumoniae ATCC 700603 assessed as reduction in bacterial cell growth measured for 18 hrs by Mueller-Hinton broth based two-fold serial dilution method; format: functional
[17] = Hemolytic activity in mouse erythrocyte incubated for 1 hr by microplate reader analysis; format: toxicity, cell-based; conditions: erythrocytes

Compound: CC[C@H](C)[C@H](NC(=O)[C@H](CCCNC(=N)N)NC(=O)[C@H](CCCCN)NC(=O)[C@H](CC(C)C)NC(=O)[C@H](CC(C)C)NC(=O)CNCC1CCCCC1)C(=O)N[C@@H](CCCCN)C(=O)N[C@H](C(=O)N[C@@H](CC(C)C)C(=O)N[C@@H](CC(C)C)C(N)=O)[C@@H](C)O (H-[NCyclohexylmethylGly]LLKRIKTLL-NH2)
MIC [1]: 50 µM
MIC [2]: 25 µM
HC10 [3]: > 50 µM

Compound: CC[C@H](C)[C@H](NC(=O)[C@H](CCCNC(=N)N)NC(=O)[C@H](CCCCN)NC(=O)[C@H](CC(C)C)NC(=O)[C@H](CC(C)C)NC(=O)CNCC(C)C)C(=O)N[C@@H](CCCCN)C(=O)N[C@H](C(=O)N[C@@H](CC(C)C)C(=O)N[C@@H](CC(C)C)C(N)=O)[C@@H](C)O (H-[Nleu]LLKRIKTLL-NH2)
MIC [1]: > 100 µM
MIC [2]: > 100 µM
HC10 [3]: > 50 µM

Compound: CC[C@H](C)[C@H](NC(=O)[C@H](CCCNC(=N)N)NC(=O)[C@H](CCCCN)NC(=O)[C@H](CC(C)C)NC(=O)[C@H](CC(C)C)NC(=O)CNCc1ccccc1)C(=O)N[C@@H](CCCCN)C(=O)N[C@H](C(=O)N[C@@H](CC(C)C)C(=O)N[C@@H](CC(C)C)C(N)=O)[C@@H](C)O (H-[Nphe]LLKRIKTLL-NH2)
MIC [1]: > 100 µM
MIC [2]: 50 µM
HC10 [3]: > 50 µM

Compound: CC[C@H](C)[C@H](NC(=O)[C@H](CCCNC(=N)N)NC(=O)[C@H](CCCCN)NC(=O)[C@H](CC(C)C)NC(=O)[C@H](CC(C)C)NC(=O)CNCC(c1ccccc1)c1ccccc1)C(=O)N[C@@H](CCCCN)C(=O)N[C@H](C(=O)N[C@@H](CC(C)C)C(=O)N[C@@H](CC(C)C)C(N)=O)[C@@H](C)O (H-[X3]LLKRIKTLL-NH2)
MIC [1]: 25 µM
MIC [2]: 12.5 µM
HC10 [3]: > 50 µM

Compound: CCCCCCCCC(=O)NCC(=O)N[C@@H](CC(C)C)C(=O)N[C@@H](CC(C)C)C(=O)N[C@@H](CCCCN)C(=O)N(C)[C@@H](CCCNC(=N)N)C(=O)N[C@H](C(=O)N(C)[C@@H](CCCCN)C(=O)N[C@H](C(=O)N[C@@H](CC(C)C)C(=O)N[C@@H](CC(C)C)C(N)=O)[C@@H](C)O)[C@@H](C)CC (Nonanoyl-GLLK[NMeR]I[NMeK]TLL-NH2)
HC50 at 1 h [11]: > 256 µM
MIC [12]: 128 µM (≈ 169 µg/mL)
MIC [13]: 8 µM (≈ 10.6 µg/mL)
MIC [14]: 128 µM (≈ 169 µg/mL)
MIC [15]: 32 µM (≈ 42.3 µg/mL)
MIC [16]: > 128 µM
HC50 at 1 h [17]: > 256 µM

Compound: CCCCCCCCC(=O)NCC(=O)N[C@@H](CC(C)C)C(=O)N[C@@H](CC(C)C)C(=O)N(C)[C@@H](CCCCN)C(=O)N[C@@H](CCCNC(=N)N)C(=O)N[C@H](C(=O)N(C)[C@@H](CCCCN)C(=O)N[C@H](C(=O)N[C@@H](CC(C)C)C(=O)N[C@@H](CC(C)C)C(N)=O)[C@@H](C)O)[C@@H](C)CC (Nonanoyl-GLL[NMeK]RI[NMeK]TLL-NH2)
HC50 at 1 h [11]: > 256 µM
MIC [12]: 128 µM (≈ 169 µg/mL)
MIC [13]: 16 µM (≈ 21.1 µg/mL)
MIC [14]: 128 µM (≈ 169 µg/mL)
MIC [15]: 32 µM (≈ 42.3 µg/mL)
MIC [16]: > 128 µM
HC50 at 1 h [17]: > 256 µM

Now from value to molecule, other results behind:

MIC [1]: > 100 µM
MIC [2]: > 100 µM
Compound: CC[C@H](C)[C@H](NC(=O)[C@H](CCCNC(=N)N)NC(=O)[C@H](CCCCN)NC(=O)[C@H](CC(C)C)NC(=O)[C@H](CC(C)C)NC(=O)CNC(C)C)C(=O)N[C@@H](CCCCN)C(=O)N[C@H](C(=O)N[C@@H](CC(C)C)C(=O)N[C@@H](CC(C)C)C(N)=O)[C@@H](C)O (H-[N(iPr)Gly]LLKRIKTLL-NH2)
HC10 [3]: > 50 µM

MIC [1]: > 100 µM
MIC [2]: 100 µM
Compound: CCCCNCC(=O)N[C@@H](CC(C)C)C(=O)N[C@@H](CC(C)C)C(=O)N[C@@H](CCCCN)C(=O)N[C@@H](CCCNC(=N)N)C(=O)N[C@H](C(=O)N[C@@H](CCCCN)C(=O)N[C@H](C(=O)N[C@@H](CC(C)C)C(=O)N[C@@H](CC(C)C)C(N)=O)[C@@H](C)O)[C@@H](C)CC (H-[NBuGly]LLKRIKTLL-NH2)
HC10 [3]: > 50 µM

MIC [1]: > 100 µM
MIC [2]: > 100 µM
Compound: CCC(C)NCC(=O)N[C@@H](CC(C)C)C(=O)N[C@@H](CC(C)C)C(=O)N[C@@H](CCCCN)C(=O)N[C@@H](CCCNC(=N)N)C(=O)N[C@H](C(=O)N[C@@H](CCCCN)C(=O)N[C@H](C(=O)N[C@@H](CC(C)C)C(=O)N[C@@H](CC(C)C)C(N)=O)[C@@H](C)O)[C@@H](C)CC (some centres undefined) (H-[X2]LLKRIKTLL-NH2)
HC10 [3]: > 50 µM

MIC [4]: 128 µM (≈ 149 µg/mL)
MIC [5]: 8 µM (≈ 9.34 µg/mL)
MIC [6]: 32 µM (≈ 37.4 µg/mL)
MIC [7]: 8 µM (≈ 9.34 µg/mL)
MIC [8]: 128 µM (≈ 149 µg/mL)
MIC [9]: 128 µM (≈ 149 µg/mL)
Compound: CC[C@H](C)[C@H](NC(=O)[C@H](CCCNC(=N)N)NC(=O)[C@H](CCCCN)NC(=O)[C@H](CC(C)C)NC(=O)[C@H](CC(C)C)NC(=O)CCN)C(=O)N[C@@H](CCCCN)C(=O)N[C@H](C(=O)N[C@@H](CC(C)C)C(=O)N[C@@H](CC(C)C)C(N)=O)[C@@H](C)O (H-[βAla]LLKRIKTLL-NH2)
HC10 [10]: > 256 µM

MIC [4]: 128 µM (≈ 146 µg/mL)
MIC [5]: 64 µM (≈ 72.8 µg/mL)
MIC [6]: 64 µM (≈ 72.8 µg/mL)
MIC [7]: 64 µM (≈ 72.8 µg/mL)
MIC [8]: 64 µM (≈ 72.8 µg/mL)
MIC [9]: > 128 µM
Compound: CC[C@H](C)[C@H](NC(=O)[C@H](CCCNC(=N)N)NC(=O)[C@H](CCCCN)NC(=O)[C@H](CC(C)C)NC(=O)[C@H](CC(C)C)NC(=O)CCN)C(=O)N[C@@H](CCCCN)C(=O)NCCC(=O)N[C@@H](CC(C)C)C(=O)N[C@@H](CC(C)C)C(N)=O (H-[βAla]LLKRIK[βAla]LL-NH2)
HC10 [10]: > 256 µM

Reference: ChEMBL document CHEMBL5608163, “Structure modification of anoplin for fighting resistant bacteria” (Eur J Med Chem, 2024)
